Assay results as given in patent publication US20190134005A1 (BioMarin Pharmaceutical Inc., priority 2016, published 2019).
pIC50: −log10 of the molar value.

molecular target: T1, human CGT (Homo sapiens, UniProt Q16880); assay: Assay 1: CGT Enzymatic Assay (RapidFire/MS/MS, 0.01% Tween 80); format: biochemical; details: Table 1, Compounds of Formula (I) and Formula (II); CGT enzymatic assay, C6-NBD-dihydro-galactosylceramide readout; read-out: IC50
T1 sequence (Q16880 21-541): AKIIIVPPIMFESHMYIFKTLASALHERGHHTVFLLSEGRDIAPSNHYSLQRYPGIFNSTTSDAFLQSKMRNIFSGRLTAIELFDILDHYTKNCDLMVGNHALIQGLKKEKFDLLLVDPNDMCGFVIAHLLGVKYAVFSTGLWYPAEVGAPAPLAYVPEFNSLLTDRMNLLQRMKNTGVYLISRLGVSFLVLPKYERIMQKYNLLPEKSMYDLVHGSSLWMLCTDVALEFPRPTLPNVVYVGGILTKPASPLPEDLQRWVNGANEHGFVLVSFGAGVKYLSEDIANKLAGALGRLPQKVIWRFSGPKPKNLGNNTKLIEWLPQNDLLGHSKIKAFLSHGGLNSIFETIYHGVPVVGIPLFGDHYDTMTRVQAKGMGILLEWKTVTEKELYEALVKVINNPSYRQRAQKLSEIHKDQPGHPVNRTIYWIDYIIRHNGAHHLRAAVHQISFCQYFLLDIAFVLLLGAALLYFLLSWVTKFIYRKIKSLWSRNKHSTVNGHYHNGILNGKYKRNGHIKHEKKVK

Compound | pIC50
CC1(C)N(c2ccc(Cl)cc2)C(=O)N(c2ccc(Cl)cc2)C1(O)c1cccc(C2COC2)c1 (stereo not drawn) [Example 324-2, 1,3-bis(4-chlorophenyl)-4-hydroxy-5,5-dimethyl-4-(3-(oxetan-3-yl)phenyl)imidazolidin-2-one] | 5.00 to 6.00
COC[C@@]1(C)N(c2ccc(Cl)cc2)C(=O)N(c2ccc(Cl)cc2)C1(O)c1cccc(C#N)c1 (single isomer, unassigned) [Compound 297-1] | > 6.00
Cc1ccc(N2C(=O)N(c3ccc(Cl)cc3)C(O)(c3cccc(OC(F)(F)F)c3)C23COC3)cc1 (stereo not drawn) [Example 311, 7-(4-chlorophenyl)-8-hydroxy-5-(p-tolyl)-8-(3-(trifluoromethoxy)phenyl)-2-oxa-5,7-diazaspiro[3.4]octan-6-one] | > 6.00
Cc1ccc(N2C(=O)N(c3ccc(C#N)cc3)C3(COC3)C2(O)c2cccc(C#N)c2)cc1 (stereo not drawn) [Compound 278, 3-(5-(4-cyanophenyl)-8-hydroxy-6-oxo-7-(p-tolyl)-2-oxa-5,7-diazaspiro[3.4]octan-8-yl)benzonitrile] | > 6.00

same assay, conditions: Table 1, Compounds of Formula (I) and Formula (II); CGT enzymatic assay; read-out: IC50

Compound | pIC50
CCC1N(c2ccc(Cl)cc2)C(=O)N(c2ccc(Cl)cc2)C1(O)c1cccc(OC(F)(F)F)c1 (stereo not drawn) [Compound 82, 1,3-bis(4-chlorophenyl)-5-ethyl-4-hydroxy-4-(3-(trifluoromethoxy)phenyl)imidazolidin-2-one] | > 6.00
CC[C@]1(C)C(c2cccc(OC(F)(F)F)c2)N(c2ccc(C#N)cc2)C(=O)N1c1ccc(C#N)cc1 (stereo partly drawn) [Example 51-1, 4,4′-((4R)-4-ethyl-4-methyl-2-oxo-5-(3-(trifluoromethoxy)phenyl)imidazolidine-1,3-diyl)dibenzonitrile] | 5.00 to 6.00
C#Cc1cc(Cl)cc(C2(O)CN(c3ccc(Cl)cc3)C(=O)N2c2ccc(Cl)cc2)c1 (stereo not drawn) [Compound 108, 4-(3-chloro-5-ethynylphenyl)-1,3-bis(4-chlorophenyl)-4-hydroxyimidazolidin-2-one] | 5.00 to 6.00
CCc1cccc(C2(O)CN(c3ccc(Br)cc3)C(=O)N2c2ccc(Br)cc2)c1 (stereo not drawn) [Example 47, 1,3-bis(4-bromophenyl)-4-(3-ethylphenyl)-4-hydroxyimidazolidin-2-one] | 5.00 to 6.00
CC[C@@H]1N(c2ccc(Br)cc2)C(=O)N(c2ccc(Br)cc2)C1(O)c1ccccc1 (stereo partly drawn) [Example 25-1] | > 6.00
CCC[C@]1(C)N(c2ccc(Cl)cc2)C(=O)N(c2ccc(Cl)cc2)C1(O)c1cccc(OC(F)(F)F)c1 (single isomer, unassigned) [Example 170-2] | > 6.00
C[C@@H]1N(c2ccc(Br)cc2)C(=O)N(c2ccc(Br)cc2)C1(O)c1cccc(C(F)(F)F)c1 (stereo partly drawn) [Compound 74-1, (5S)-1,3-bis(4-bromophenyl)-4-hydroxy-5-methyl-4-(3-(trifluoromethyl)phenyl)imidazolidin-2-one] | > 6.00
CC(C)c1ccc(C2(O)C(=O)N(c3ccccc3)C(=O)N2c2ccccc2)cc1 (stereo not drawn) [Compound 153, 5-hydroxy-5-(4-isopropylphenyl)-1,3-diphenylimidazolidine-2,4-dione] | < 4.30
C[C@H]1N(c2ccc(F)cc2)C(=O)N(c2ccc(F)cc2)C1(O)c1cccc(OC(F)(F)F)c1 (stereo partly drawn) [Compound 130-2, (5R)-1,3-bis(4-fluorophenyl)-4-hydroxy-5-methyl-4-(3-(trifluoromethoxy)phenyl)imidazolidin-2-one] | > 6.00
O=C1N(c2ccc(OC3CCCC3)cc2)C(=O)C(O)(c2ccccc2)N1c1ccc(OC2CCCC2)cc1 (stereo not drawn) [Example 168, 1,3-bis(4-(cyclopentyloxy)phenyl)-5-hydroxy-5-phenylimidazolidine-2,4-dione] | < 4.30
Cc1cccc(C2(O)CN(c3ccc(Cl)cc3)C(=O)N2c2ccc(Cl)cc2)c1 (stereo not drawn) [Example 34, 1,3-bis(4-chlorophenyl)-4-hydroxy-4-(m-tolyl)imidazolidin-2-one] | 5.00 to 6.00
CCCc1c(-c2cccc(CC)c2)n(-c2ccc(Cl)cc2)c(=O)n1-c1ccc(Cl)cc1 [Compound 244, 1,3-bis(4-chlorophenyl)-4-(3-ethylphenyl)-5-propyl-1,3-dihydro-2H-imidazol-2-one] | 5.00 to 6.00
O=C1N(c2ccc(Br)cc2)C(=O)C(O)(c2ccc(OC3CCCC3)cc2)N1c1ccc(Br)cc1 (stereo not drawn) [Example 167, 1,3-bis(4-bromophenyl)-5-(4-(cyclopentyloxy)phenyl)-5-hydroxyimidazolidine-2,4-dione] | 4.00 to 4.30
CC[C@@H]1N(c2ccc(F)cc2)C(=O)N(c2ccc(F)cc2)C1(O)c1cccc(C#N)c1 (stereo partly drawn) [Compound 123-1, 3-((5S)-5-ethyl-1,3-bis(4-fluorophenyl)-4-hydroxy-2-oxoimidazolidin-4-yl)benzonitrile] | 5.00 to 6.00
O=C1N(c2ccc(Cl)cc2)CC(O)(c2cc(Cl)cc(Br)c2)N1c1ccc(Cl)cc1 (stereo not drawn) [Compound 98, 4-(3-bromo-5-chlorophenyl)-1,3-bis(4-chlorophenyl)-4-hydroxyimidazolidin-2-one] | 5.00 to 6.00
O=C1N(c2ccc(Br)cc2)C(C2CC2)C(O)(c2ccccc2)N1c1ccc(Br)cc1 (stereo not drawn) [Compound 115, 1,3-bis(4-bromophenyl)-5-cyclopropyl-4-hydroxy-4-phenylimidazolidin-2-one] | > 6.00
O=C1N(c2ccc(Br)cc2)CC(O)(c2ccc(Cl)s2)N1c1ccc(Br)cc1 (stereo not drawn) [Example 5, 1,3-bis(4-bromophenyl)-4-(5-chlorothiophen-2-yl)-4-hydroxyimidazolidin-2-one] | 4.30 to 5.00
CCCC1N(c2ccc(Cl)cc2)C(=O)N(c2ccc(Cl)cc2)C1(O)c1cccc(C#N)c1 (stereo not drawn) [Compound 101, 3-(1,3-bis(4-chlorophenyl)-4-hydroxy-2-oxo-5-propylimidazolidin-4-yl)benzonitrile] | > 6.00
Cc1ccc(N2C(=O)N(c3ccc(C)cc3)C(O)(c3cccc(OC(F)(F)F)c3)[C@H]2C(C)C)cc1 (single isomer, unassigned) [Compound 235-2] | > 6.00
CC[C@H]1N(c2ccc(Br)cc2)C(=O)N(c2ccc(Br)cc2)C1(O)c1cccc(C(F)(F)F)c1 (stereo partly drawn) [Compound 67-2, (5R)-1,3-bis(4-bromophenyl)-5-ethyl-4-hydroxy-4-(3-(trifluoromethyl)phenyl)imidazolidin-2-one] | > 6.00

molecular target: T1, human CGT; assay: CGT Enzyme Assay (Biological Example 2, RapidFire/MS/MS method with 0.01% Tween 80 added); format: biochemical; details: enzymatic assay, CHO/CGT lysate
Description: Full-length human CGT cDNA was cloned into the BamH1/Xho1 site of pcDNA3.1 (+) mammalian expression vector (V90-20, Invitrogen, Carlsbad, Calif.) and the plasmid was transfected into Chinese hamster ovary (CHO) cells. Lysate was prepared using M-PER (Mammalian Protein Extraction Reagent, ThermoFisher Scientific, Grand Island, N.Y.) in the presence of a protease inhibitor cocktail (P8340, Sigma, Saint Louis, Mo.). Each 100 mm dish (100% confluent, approximately 1×10^7 cells) was lysed with 250 μL of M-PER containing protease inhibitors. Protein concentration was determined using a Pierce BCA protein assay kit (ThermoFisher Scientific). […] The final concentration of DMSO was 0.5% in both compound-treated and mock-treated samples. Each individual reaction was diluted with 80 μL of methanol:acetronitrile (1:3) containing 5 μM N-docdecanoyl-NBD-galactosylceramide (internal standard) to stop the reaction. 200 μL H2O:acetonitile (1:1) was added to precipitate the protein. After sufficient mixing, the plates were centrifuged at 2469 g for 38 minutes, 200 μl of supernatant was transferred to a LC-MS 96-deep well plate and a second spin was performed at 2469 g for 10 minutes. The final supernatant was injected in triplicate for RapidFire/MS/MS analysis.
The quantitative analysis of C6-NBD-dihydro-ceramide and C6-NBD-dihydro-galactosylceramide was performed on a Rapid Fire 360 high-throughput mass spectrometry system (Agilent Technologies, Palo Alto, Calif.) coupled with a API4000^+ triple quadrupole mass spectrometer (Applied Biosystems, Concord, Ontario, Canada). RapidFire software packages, including RapidFire Control panel, RapidFire UI and RapidFire Integrator (Agilent Technologies), were used to control the RapidFire instrument and to process data. Analyst 1.6.2 software packages (Applied Biosystems) were used to control the MS system and acquire MS data. 10 μL of sample was loaded on a micro-scale C4 solid-phase extraction (SPE) cartridge (Agilent Technologies) and salts were removed using water supplemented with 0.1% formic acid at the flow rate of 1.5 mL/min for 3 sec. C6-NBD-dihydro-ceramide and C6-NBD-dihydro-galactosylceramide were co-eluted into the mass spectrometer using acetonitrile containing 0.1% formic acid at the flow rate of 1.0 mL/min for 3 sec. The total cycle time of one injection was 8 secs. The MS/MS detection was performed in ESI negative mode.
The C6-NBD-dihydro-galactosylceramide reading was normalized first by dividing the peak area of C6-NBD-dihydro-galactosylceramide by the peak area of the internal standard, N-docdecanoyl-NBD-galactosylceramide.

Compound | pIC50
Cc1ccc(N2C(=O)N(c3ccc(C#N)cc3)[C@H](c3cccc(C#N)c3)C23COC3)cc1 [Example 55-1, (R)-3-(7-(4-cyanophenyl)-6-oxo-5-(p-tolyl)-2-oxa-5,7-diazaspiro[3.4]octan-8-yl)benzonitrile] | 4.52 to 5.00
COC[C@]1(C)[C@H](c2cccc(C#N)c2)N(c2ccc(Cl)cc2)C(=O)N1c1ccc(Cl)cc1 [Example 38-2, 3-((4S,5S)-1,3-bis(4-chlorophenyl)-5-(methoxymethyl)-5-methyl-2-oxoimidazolidin-4-yl)benzonitrile] | > 6.00
COC[C@@]1(C)[C@@H](c2cccc(C#N)c2)N(c2ccc(Cl)cc2)C(=O)N1c1ccc(Cl)cc1 [Example 38-1, 3-((4R,5R)-1,3-bis(4-chlorophenyl)-5-(methoxymethyl)-5-methyl-2-oxoimidazolidin-4-yl)benzonitrile] | 5.00 to 6.00
C[C@H]1[C@H](c2ccccc2)N(c2ccc(Br)cc2)C(=O)N1c1ccc(Br)cc1 [Example 2-1, (4S,5S)-1,3-bis(4-bromophenyl)-4-methyl-5-phenylimidazolidin-2-one] | 4.00 to 4.52
C[C@@H]1[C@@H](c2cccc(OC(F)(F)F)c2)N(c2ccc(Br)cc2)C(=O)N1c1ccc(Br)cc1 [Example 11-1, (4R,5R)-1,3-bis(4-bromophenyl)-4-methyl-5-(3-(trifluoromethoxy)phenyl)imidazolidin-2-one] | 5.00 to 6.00
CC1(C)C(c2cccc(OC(F)(F)F)c2)N(c2ccc(Cl)cc2)C(=O)N1c1ccc(Cl)cc1 (stereo not drawn) [Example 7] | > 6.00
